Assay: pH screen stability of prednisolone acetate oral suspension (HPLC)
Type: physicochemical
Details: pH range of 5.0 to 6.2
Protocol: NaOH was added to the portions to give various pH values (Batch A-E) and packaged in 4 ounce amber PETG bottles. The samples were left at the environmentally stressed conditions of 40° centigrade or 50° centigrade for one month. HPLC methods were used to measure the percent of prednisolone acetate retained in the bottle.

CC(=O)OCC(=O)[C@@]1(O)CC[C@H]2[C@@H]3CCC4=CC(=O)C=C[C@]4(C)[C@H]3[C@@H](O)C[C@@]21C [Prednisolone acetate, prednisolone acetate]
Stability as a function of pH: more stable at the lower pH values
